Results as given in patent US20250320193A1, “OXOISOINDOLINYL SUBSTITUTED PIPERIDINEDIONE DERIVATIVE AND USE THEREOF” (GLUETACS THERAPEUTICS (SHANGHAI) CO., LTD., priority 2022, published 2025).
pIC50: −log10 of the molar value.

Experiments:
GSPT1 = GSPT1 (Homo sapiens (Human), UniProt P15170+Q96SW2); experiment: Western blot, substrate protein expression in hPBMC: GSPT1; format: cell-based; settings: hPBMC, compound 500 nM, 24 hours, Western blot
Procedure, shortened: (§1)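 hPBMC, 1×10^6 cells/mL, 24 h compound exposure; RIPA lysis, BCA protein assay, SDS-PAGE, NC membrane immunoblot. Densitometry vs internal control → % protein remaining; degradation % = 100% − remaining; DC50 = conc. at 50% of DMSO band signal.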

IKZF1 = IKZF1 (Homo sapiens (Human), UniProt Q13422+Q96SW2); experiment: Western blot, substrate protein expression in hPBMC: IKZF1; format: cell-based; settings: hPBMC, compound 500 nM, 24 hours, Western blot
Procedure, shortened: as §1

IKZF3 = IKZF3 (Homo sapiens (Human), UniProt Q96SW2+Q9UKT9); experiment: Western blot, substrate protein expression in hPBMC: IKZF3; format: cell-based; settings: hPBMC, compound 500 nM, 24 hours, Western blot
Procedure, shortened: as §1

[1] = target: human Cereblon WT GST-tagged protein (Homo sapiens (Human), UniProt Q96SW2); experiment: CRBN-binding affinity, HTRF (CEREBLON BINDING kit, CISBIO); settings: HTRF inhibitory activity
Procedure, shortened: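 Compounds were mixed with GST-tagged human Cereblon WT protein, then with Thalidomide-Red tracer and GST Eu antibody, and binding was read by HTRF. Inhibition rate was calculated from 620 nm emission relative to blank control wells (no protein) and solvent control wells.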

Chain of human Cereblon WT GST-tagged protein (Q96SW2 whole entry): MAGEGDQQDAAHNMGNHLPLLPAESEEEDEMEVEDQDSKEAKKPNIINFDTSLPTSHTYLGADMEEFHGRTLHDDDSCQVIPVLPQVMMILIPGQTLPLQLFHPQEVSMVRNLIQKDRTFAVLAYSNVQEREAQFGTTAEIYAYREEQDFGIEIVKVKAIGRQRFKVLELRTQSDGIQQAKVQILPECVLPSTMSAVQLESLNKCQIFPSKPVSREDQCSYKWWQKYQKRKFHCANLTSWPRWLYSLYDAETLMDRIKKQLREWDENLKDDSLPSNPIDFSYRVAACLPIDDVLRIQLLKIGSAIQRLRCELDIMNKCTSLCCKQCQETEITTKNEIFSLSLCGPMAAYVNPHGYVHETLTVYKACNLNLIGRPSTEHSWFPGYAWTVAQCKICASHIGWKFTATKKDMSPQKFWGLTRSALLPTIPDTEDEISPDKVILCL
Chain of IKZF3 (Q9UKT9 whole entry): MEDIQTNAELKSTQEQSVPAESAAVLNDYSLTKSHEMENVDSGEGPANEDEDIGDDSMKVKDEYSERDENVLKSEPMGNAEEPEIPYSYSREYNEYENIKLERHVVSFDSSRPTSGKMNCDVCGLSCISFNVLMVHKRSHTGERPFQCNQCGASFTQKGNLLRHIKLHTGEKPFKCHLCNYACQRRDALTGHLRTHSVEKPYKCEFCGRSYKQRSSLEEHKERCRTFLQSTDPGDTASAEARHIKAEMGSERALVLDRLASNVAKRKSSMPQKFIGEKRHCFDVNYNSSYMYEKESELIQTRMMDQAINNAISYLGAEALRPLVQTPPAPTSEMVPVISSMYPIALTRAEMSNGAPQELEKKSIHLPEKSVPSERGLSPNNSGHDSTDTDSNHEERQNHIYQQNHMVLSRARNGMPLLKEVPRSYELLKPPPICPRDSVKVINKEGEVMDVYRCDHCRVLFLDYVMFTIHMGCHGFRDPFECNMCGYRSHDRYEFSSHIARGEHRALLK
Chain of IKZF3 (Q96SW2 whole entry): as the sequence (Q96SW2 whole entry) above
Chain of IKZF3 (Q16531 whole entry partner): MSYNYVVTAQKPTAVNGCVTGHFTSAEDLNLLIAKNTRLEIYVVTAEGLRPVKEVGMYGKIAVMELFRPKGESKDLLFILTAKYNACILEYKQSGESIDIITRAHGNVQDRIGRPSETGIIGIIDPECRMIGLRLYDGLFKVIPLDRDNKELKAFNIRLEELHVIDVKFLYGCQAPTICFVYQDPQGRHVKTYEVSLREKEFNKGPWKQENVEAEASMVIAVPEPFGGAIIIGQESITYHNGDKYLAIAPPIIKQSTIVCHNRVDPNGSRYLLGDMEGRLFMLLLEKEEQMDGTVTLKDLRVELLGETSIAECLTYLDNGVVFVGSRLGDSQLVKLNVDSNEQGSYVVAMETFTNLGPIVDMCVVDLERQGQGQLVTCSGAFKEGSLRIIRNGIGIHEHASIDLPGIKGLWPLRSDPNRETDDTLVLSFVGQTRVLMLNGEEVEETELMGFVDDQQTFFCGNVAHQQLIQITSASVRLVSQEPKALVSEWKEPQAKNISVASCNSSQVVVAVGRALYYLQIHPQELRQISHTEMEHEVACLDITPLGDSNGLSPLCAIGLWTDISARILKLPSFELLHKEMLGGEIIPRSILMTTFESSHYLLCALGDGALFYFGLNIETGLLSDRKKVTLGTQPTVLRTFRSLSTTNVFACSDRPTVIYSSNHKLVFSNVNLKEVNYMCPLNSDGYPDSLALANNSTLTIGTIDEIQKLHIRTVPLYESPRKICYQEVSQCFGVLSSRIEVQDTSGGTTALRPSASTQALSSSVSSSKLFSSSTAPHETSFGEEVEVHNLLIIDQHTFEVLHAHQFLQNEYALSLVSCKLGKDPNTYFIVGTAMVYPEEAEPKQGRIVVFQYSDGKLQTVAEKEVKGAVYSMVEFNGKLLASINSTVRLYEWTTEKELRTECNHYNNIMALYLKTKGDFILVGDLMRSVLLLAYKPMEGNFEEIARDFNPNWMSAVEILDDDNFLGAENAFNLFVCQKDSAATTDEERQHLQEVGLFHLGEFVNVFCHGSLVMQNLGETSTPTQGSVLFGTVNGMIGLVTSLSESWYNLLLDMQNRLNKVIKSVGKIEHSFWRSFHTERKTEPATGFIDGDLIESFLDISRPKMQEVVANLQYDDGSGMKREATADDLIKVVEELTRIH
Chain of GSPT1 (P15170 whole entry): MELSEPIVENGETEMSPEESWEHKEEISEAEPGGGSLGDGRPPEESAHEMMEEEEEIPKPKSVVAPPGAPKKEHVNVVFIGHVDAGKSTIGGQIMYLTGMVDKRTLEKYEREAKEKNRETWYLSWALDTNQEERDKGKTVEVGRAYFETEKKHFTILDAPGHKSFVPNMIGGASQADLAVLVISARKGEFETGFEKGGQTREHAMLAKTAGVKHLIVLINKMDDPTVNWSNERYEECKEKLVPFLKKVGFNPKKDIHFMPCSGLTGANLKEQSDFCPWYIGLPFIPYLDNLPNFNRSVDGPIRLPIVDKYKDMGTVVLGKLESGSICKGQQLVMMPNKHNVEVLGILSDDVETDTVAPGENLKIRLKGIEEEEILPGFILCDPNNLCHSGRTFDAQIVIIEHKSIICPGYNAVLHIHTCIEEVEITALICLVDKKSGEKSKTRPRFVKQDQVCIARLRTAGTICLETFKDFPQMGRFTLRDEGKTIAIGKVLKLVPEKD
Chain of GSPT1 (Q96SW2 whole entry): as the sequence (Q96SW2 whole entry) above
Chain of GSPT1 (Q16531 whole entry partner): as the sequence (Q16531 whole entry partner) above
Chain of IKZF1 (Q13422 whole entry): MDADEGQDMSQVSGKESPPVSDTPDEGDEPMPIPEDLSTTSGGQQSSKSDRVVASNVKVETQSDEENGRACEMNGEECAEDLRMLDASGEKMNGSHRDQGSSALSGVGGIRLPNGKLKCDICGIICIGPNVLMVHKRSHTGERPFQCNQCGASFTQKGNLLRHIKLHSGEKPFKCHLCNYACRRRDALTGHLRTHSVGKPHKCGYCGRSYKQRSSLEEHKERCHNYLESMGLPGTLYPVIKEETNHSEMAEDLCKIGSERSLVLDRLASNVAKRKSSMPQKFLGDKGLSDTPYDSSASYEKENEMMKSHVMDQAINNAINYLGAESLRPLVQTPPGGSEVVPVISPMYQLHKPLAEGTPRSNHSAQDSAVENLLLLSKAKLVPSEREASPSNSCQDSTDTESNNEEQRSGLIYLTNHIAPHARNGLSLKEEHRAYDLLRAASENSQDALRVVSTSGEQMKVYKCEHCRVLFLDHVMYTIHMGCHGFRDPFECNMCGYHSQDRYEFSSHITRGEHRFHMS
Chain of IKZF1 (Q96SW2 whole entry): as the sequence (Q96SW2 whole entry) above
Chain of IKZF1 (Q16531 whole entry partner): as the sequence (Q16531 whole entry partner) above

| Structure (SMILES) | pIC50 [1] | substrate protein remaining % GSPT1 (GSPT1) | substrate protein remaining % IKZF1 (IKZF1) | substrate protein remaining % IKZF3 (IKZF3) |
| --- | --- | --- | --- | --- |
| O=C1CCC(N2Cc3cc(C(=O)N4CCN(C(c5ccc(F)cc5)c5ccc(F)cc5)CC4)cc(F)c3C2=O)C(=O)N1 (stereo not drawn) [GT-05882, 3-(5-(4-(bis(4-fluorophenyl)methyl)piperazine-1-carbonyl)-7-fluoro-1-oxoisoindolin-2-yl)piperidine-2,6-dione] | 6.00 to 6.30 | A (A represents 0% ≤ substrate protein remaining % ≤ 50%) | B (B represents substrate protein remaining % > 50%) | B (B represents substrate protein remaining % > 50%) |
| O=C1CCC(N2Cc3cc(C(=O)N4CCN(C(c5ccc(Cl)cc5)c5ccc(Cl)cc5)CC4)ccc3C2=O)C(=O)N1 (stereo not drawn) [GT-05886, 3-(5-(4-(bis(4-chlorophenyl)methyl)piperazine-1-carbonyl)-1-oxoisoindolin-2-yl)piperidine-2,6-dione] | 5.72 to 6.00 | A (A represents 0% ≤ substrate protein remaining % ≤ 50%) | B (B represents substrate protein remaining % > 50%) | A (A represents 0% ≤ substrate protein remaining % ≤ 50%) |
| O=C1CCC(N2Cc3c(CN4CC5(CCN(C(c6ccccc6)c6ccccc6)CC5)C4)cccc3C2=O)C(=O)N1 (stereo not drawn) [GT-05905, 3-(4-((7-benzhydryl-2,7-diazaspiro[3.5]nonan-2-yl)methyl)-1-oxoisoindolin-2-yl)piperidine-2,6-dione] | 6.00 to 6.30 | A (A represents 0% ≤ substrate protein remaining % ≤ 50%) | B (B represents substrate protein remaining % > 50%) | B (B represents substrate protein remaining % > 50%) |
| CC1CN(C(c2ccccc2)c2ccccc2)CC(C)N1C(=O)c1ccc2c(c1)CN(C1CCC(=O)NC1=O)C2=O (stereo not drawn) [GT-05920, 3-(5-(4-benzhydryl-2,6-dimethylpiperazine-1-carbonyl)-1-oxoisoindolin-2-yl)piperidine-2,6-dione] | > 6.30 | A (A represents 0% ≤ substrate protein remaining % ≤ 50%) | B (B represents substrate protein remaining % > 50%) | B (B represents substrate protein remaining % > 50%) |
| O=C1CCC(N2Cc3cc(C(=O)N4CCC(N(c5ccccc5)c5ccccn5)CC4)ccc3C2=O)C(=O)N1 (stereo not drawn) [GT-05923, 3-(1-oxo-5-(4-(phenyl(pyridin-2-yl)amino)piperidine-1-carbonyl)isoindolin-2-yl)piperidine-2,6-dione] | > 6.30 | A (A represents 0% ≤ substrate protein remaining % ≤ 50%) | B (B represents substrate protein remaining % > 50%) | B (B represents substrate protein remaining % > 50%) |
| O=C1CCC(N2Cc3cc(C(=O)N4CCC(N(c5ccccc5)c5ccccc5)CC4)cc(F)c3C2=O)C(=O)N1 (stereo not drawn) [GT-05927, 3-(5-(4-(diphenylamino)piperidine-1-carbonyl)-7-fluoro-1-oxoisoindolin-2-yl)piperidine-2,6-dione] | > 6.30 | A (A represents 0% ≤ substrate protein remaining % ≤ 50%) | B (B represents substrate protein remaining % > 50%) | B (B represents substrate protein remaining % > 50%) |
| O=C1CCC(N2Cc3c(C(=O)N4CCN(C(c5ccc(F)cc5)c5ccc(F)cc5)CC4)cccc3C2=O)C(=O)N1 (stereo not drawn) [GT-05930, 3-(4-(4-(bis(4-fluorophenyl)methyl)piperazine-1-carbonyl)-1-oxoisoindolin-2-yl)piperidine-2,6-dione] | > 6.30 | A (A represents 0% ≤ substrate protein remaining % ≤ 50%) | B (B represents substrate protein remaining % > 50%) | B (B represents substrate protein remaining % > 50%) |
| CC1CN(Cc2ccc3c(c2F)CN(C2CCC(=O)NC2=O)C3=O)CC(C)N1C(c1ccccc1)c1ccccc1 (stereo not drawn) [GT-05965, 3-(5-((4-benzhydryl-3,5-dimethylpiperazin-1-yl)methyl)-4-fluoro-1-oxoisoindolin-2-yl)piperidine-2,6-dione] | 5.72 to 6.00 | A (A represents 0% ≤ substrate protein remaining % ≤ 50%) | A (A represents 0% ≤ substrate protein remaining % ≤ 50%) | A (A represents 0% ≤ substrate protein remaining % ≤ 50%) |

Further lines, with some results ahead:

| pIC50 [1] | Structure (SMILES) | substrate protein remaining % GSPT1 (GSPT1) | substrate protein remaining % IKZF1 (IKZF1) | substrate protein remaining % IKZF3 (IKZF3) |
| --- | --- | --- | --- | --- |
| 5.72 to 6.00 | CC1CN(C(c2ccccc2)c2ccccc2)CC(C)N1C(=O)c1ccc2c(c1)C(=O)N(C1CCC(=O)NC1=O)C2=O (stereo not drawn) [GT-05922, 5-(4-benzhydryl-2,6-dimethylpiperazine-1-carbonyl)-2-(2,6-dioxopiperidin-3-yl) isoindoline-1,3-dione] | A (A represents 0% ≤ substrate protein remaining % ≤ 50%) | B (B represents substrate protein remaining % > 50%) | B (B represents substrate protein remaining % > 50%) |
| 6.00 to 6.30 | O=C1CCC(N2Cc3cc(C(=O)N4CCC(N(c5ccccc5)c5ccccn5)CC4)cc(F)c3C2=O)C(=O)N1 (stereo not drawn) [GT-05924, 3-(7-fluoro-1-oxo-5-(4-(phenyl(pyridin-2-yl)amino)piperidine-1-carbonyl)isoindolin-2-yl)piperidine-2,6-dione] | A (A represents 0% ≤ substrate protein remaining % ≤ 50%) | B (B represents substrate protein remaining % > 50%) | B (B represents substrate protein remaining % > 50%) |
| > 6.30 | O=C1CCC(N2Cc3cc(C(=O)N4CCC(N(c5ccccc5)c5ccccc5)CC4)ccc3C2=O)C(=O)N1 (stereo not drawn) [GT-05926, 3-(5-(4-(diphenylamino)piperidine-1-carbonyl)-1-oxoisoindolin-2-yl)piperidine-2,6-dione] | A (A represents 0% ≤ substrate protein remaining % ≤ 50%) | B (B represents substrate protein remaining % > 50%) | B (B represents substrate protein remaining % > 50%) |
| 6.00 to 6.30 | O=C1CCC(N2Cc3c(C(=O)N4CCN(C(c5ccccc5)c5ccccn5)CC4)cccc3C2=O)C(=O)N1 (stereo not drawn) [GT-05929, 3-(1-oxo-4-(4-(phenyl(pyridin-2-yl)methyl)piperazine-1-carbonyl)isoindolin-2-yl)piperidine-2,6-dione] | A (A represents 0% ≤ substrate protein remaining % ≤ 50%) | A (A represents 0% ≤ substrate protein remaining % ≤ 50%) | A (A represents 0% ≤ substrate protein remaining % ≤ 50%) |
| 5.72 to 6.00 | CC1(C)CN(Cc2cc3c(cc2F)C(=O)N(C2CCC(=O)NC2=O)C3)CCN1C(c1ccccc1)c1ccccc1 (stereo not drawn) [GT-05960, 3-(5-((4-benzhydryl-3,3-dimethylpiperazin-1-yl)methyl)-6-fluoro-1-oxoisoindolin-2-yl)piperidine-2,6-dione] | A (A represents 0% ≤ substrate protein remaining % ≤ 50%) | B (B represents substrate protein remaining % > 50%) | A (A represents 0% ≤ substrate protein remaining % ≤ 50%) |
| 6.00 to 6.30 | CC1(C)CN(Cc2cc(F)c3c(c2)CN(C2CCC(=O)NC2=O)C3=O)CCN1C(c1ccccc1)c1ccccc1 (stereo not drawn) [GT-05961, 3-(5-((4-benzhydryl-3,3-dimethylpiperazin-1-yl)methyl)-7-fluoro-1-oxoisoindolin-2-yl)piperidine-2,6-dione] | A (A represents 0% ≤ substrate protein remaining % ≤ 50%) | B (B represents substrate protein remaining % > 50%) | A (A represents 0% ≤ substrate protein remaining % ≤ 50%) |
| 6.00 to 6.30 | O=C1CCC(N2Cc3cc(CN4CC5CCC4CN5C(c4ccccc4)c4ccccc4)c(F)cc3C2=O)C(=O)N1 (stereo not drawn) [GT-05963, 3-(5-((5-benzhydryl-2,5-diazabicyclo[2.2.2]octan-2-yl)methyl)-6-fluoro-1-oxoisoindolin-2-yl)piperidine-2,6-dione] | A (A represents 0% ≤ substrate protein remaining % ≤ 50%) | B (B represents substrate protein remaining % > 50%) | B (B represents substrate protein remaining % > 50%) |
